# Reference: patent US12416052B2, “Capturing, concentrating, and detecting microbes in a sample using magnetic ionic liquids and recombinase polymerase amplification” (priority 2019, dated 2025)
# “Also recorded” adds a separate entry of the source.
# What was measured:
# [1] = tested on: K. aerogenes ATCC 29940; experiment: MIL-based whole-cell extraction; design: species or system Klebsiella aerogenes; conditions: EF determined using Tryptic Soy Agar
# Description: (§1) A universal schematic for MIL-based cell extraction is depicted in FIG. 7B. A 1 mL volume of diluted cell suspension was added to a flat-bottomed 4-mL screw cap glass vial. Fifteen microliters of either the Ni(II) or Dy(III) MIL was added and dispersed into microdroplets by vortex agitation for 30 s. The aqueous phase was decanted following dispersive extraction, and the MIL was subjected to a brief wash step using 1 mL of nuclease-free water (Integrated DNA Technologies, Coralville, IA, USA) to ensure adequate removal of loosely or incidentally bound cells. […]
# (§2) Following back-extraction, aliquots of the cell-enriched back-extraction medium were serially diluted in 0.1% peptone water and a 10 μL aliquot of each dilution was applied to a separate lane on square plates containing an appropriate agar medium. […] Colonies were counted and colony forming units (CFU) were determined. The enrichment factor (EF) for MIL-based extraction was calculated using Equation 1, where CMIL represents the concentration of bacteria in suspension following extraction using the MIL and CS is the initial concentration of bacteria in the sample.
# [2] = tested on: P. carotovorum pv. carotovorum; experiment: MIL-based whole-cell extraction; design: species or system Pectobacterium carotovorum; conditions: EF determined using Columbia Agar
# Description: as §1, §2
# [3] = tested on: Y. enterocolitica ATCC 2371; experiment: MIL-based whole-cell extraction; design: species or system Yersinia enterocolitica; conditions: EF determined using Tryptic Soy Agar
# Description: as §1, §2
# [4] = tested on: Y. enterocolitica ATCC 9160; experiment: MIL-based whole-cell extraction; design: species or system Yersinia enterocolitica; conditions: EF determined using Tryptic Soy Agar
# Description: as §1, §2
# [5] = tested on: S. typhimurium ATCC 14028; experiment: Exposure of cells and plating on non-selective (TSA) and selective (BSA) agar (viability, injury, toxicity); type: cell-based, Salmonella enterica; conditions: exposure 0 to 15 min, 15 μL MIL
# Description: To examine whether exposure time to the Ni(II) MIL affected cell viability, MIL-based whole-cell extraction was performed using the Ni(II) MIL, and cell-enriched back-extraction media were enumerated at 0, 5, 10 and 15 min on both TSA and BSA. To evaluate toxicity of the [EMIM^+][SCN^−] IL, one milliliter of diluted S. typhimurium ATCC 14028 cell suspension was added to a 4-mL screw cap glass vial. A 5% (vol/vol) or 50% (vol/vol) aqueous solution of 1-ethyl-3-methylimidazolium thiocyanate (“[EMIM^+][SCN^−]”) (IoLiTec, Tuscaloosa, AL, USA) was added and mixed by vortexing for 30 s. Aliquots were enumerated at 0, 5, 10 and 15 min using TSA and BSA.
# One milliliter of diluted S. typhimurium ATCC 14028 cell suspension was added to a 4-mL screw cap glass vial. Fifteen microliters of either the Dy(III) MIL or 2-10 μL of 100 mM DyCh solution or 10 mg of the ammonium tetra(hexafluoroaceto)dysprosium salt (15) ([NH4^+][Dy(hfacac)4^−]) (“Dy(III) ammonium salt”) was added and dispersed by vortex agitation for 30 s. Aliquots of the Dy(III) MIL- or Dy(III) ammonium salt-exposed cell suspension were enumerated using square TSA or BSA plates (BD).
# Because culture-based methods depend on sample preparation steps that preserve bacterial viability, potential deleterious cytotoxic effects imparted by MIL extractants must be considered. To begin our further study of MIL-bacterial interactions, we selected S. typhimurium ATCC 14028 as a model gram-negative pathogen and the Ni(II) MIL as extractant. Briefly, a 1 mL aliquot of TSB was inoculated with 1×10^5 CFU mL^−1 of bacteria and spiked with 15 μL of the Ni(II) MIL, and the general schematic for MIL-based extraction and recovery followed as shown in FIG. 7B. After extraction, 10 μL aliquots of the back-extraction solution were enumerated at 0, 5, 10 and 15 min using TSA and BSA. Average CFU counts were compared to a standard that was not exposed to the Ni(II) MIL. […] To better understand the data in FIG. 8, statistical analyses of Ni(II) MIL capture precision and CFU count variation as a function of MIL exposure time were performed. Variation in MIL capture may stem from inherent randomness of MIL dispersion and coalescence behaviors.
# The effects of 5% or 50% (vol/vol) aqueous solutions of the [EMIM^+][SCN^−] IL on the viability of the cells were also evaluated. Average CFU counts were compared to a standard not exposed to [EMIM^+][SCN^−]. In our hands, when S. typhimurium was exposed to 50% (vol/vol) solutions of [EMIM^+][SCN^−], no recovery was observed on either TSA or BSA after 5 min of exposure.
# To gain further insight into this phenomenon, the effect of free elemental dysprosium was evaluated by subjecting the cells to 0.1 mM and 1.0 mM solutions of DyCl3. The cells were exposed to the metal salt solutions for 30 s and subsequently plated on selective and non-selective media.
# While the metal did show cytotoxicity, it cannot be completely responsible for the Dy(III) MIL's effect on the cells, as no flocculation was seen and growth was still observed. Since both the Ni(II) and the Dy(III) MILs contain identical cations ([P6,6,6,14^+]), the role of the anion structure was evaluated. The anion of the Dy(III) MIL contains one additional hexafluoroacetylacetonate ligand than the Ni(II) MIL (FIG. 7), making the coordination geometry of the two complexes different. To test the effects of the anion structure, cells were subjected to 10 mg of the Dy(III) ammonium salt. After a 30 second vortex, similar flocculation was observed as when the cells were exposed to the native Dy(III) MIL.
smiles,measurement,setting,value
"CCCCCCCCCCCCCC[P+](CCCCCC)(CCCCCC)CCCCCC.O=C([CH-]C(=O)C(F)(F)F)C(F)(F)F.O=C([CH-]C(=O)C(F)(F)F)C(F)(F)F.O=C([CH-]C(=O)C(F)(F)F)C(F)(F)F.[Ni+2] [Ni(II) MIL, [P66614^+][Ni(hfacac)3^−]]",Enrichment Factor,[1],71
same,Enrichment Factor,[2],24
same,Enrichment Factor,[3],5
same,Enrichment Factor,[4],5
same,injury to S. typhimurium: average CFU counts on TSA and BSA,[5],did not cause detectable injury; also recorded: appeared to be similar
